Experimental findings from patent publication US9359367B2, “Tetrahydroquinazolinone derivatives as PARP inhibitors” (Lupin Limited, priority 2012, dated 2016) are described below.

Each structure is given as a SMILES string.

The assay deals with T1, PARP1 (Homo sapiens, UniProt P09874).
T1 construct: purchased BPS Bioscience
T1 sequence (P09874 whole entry): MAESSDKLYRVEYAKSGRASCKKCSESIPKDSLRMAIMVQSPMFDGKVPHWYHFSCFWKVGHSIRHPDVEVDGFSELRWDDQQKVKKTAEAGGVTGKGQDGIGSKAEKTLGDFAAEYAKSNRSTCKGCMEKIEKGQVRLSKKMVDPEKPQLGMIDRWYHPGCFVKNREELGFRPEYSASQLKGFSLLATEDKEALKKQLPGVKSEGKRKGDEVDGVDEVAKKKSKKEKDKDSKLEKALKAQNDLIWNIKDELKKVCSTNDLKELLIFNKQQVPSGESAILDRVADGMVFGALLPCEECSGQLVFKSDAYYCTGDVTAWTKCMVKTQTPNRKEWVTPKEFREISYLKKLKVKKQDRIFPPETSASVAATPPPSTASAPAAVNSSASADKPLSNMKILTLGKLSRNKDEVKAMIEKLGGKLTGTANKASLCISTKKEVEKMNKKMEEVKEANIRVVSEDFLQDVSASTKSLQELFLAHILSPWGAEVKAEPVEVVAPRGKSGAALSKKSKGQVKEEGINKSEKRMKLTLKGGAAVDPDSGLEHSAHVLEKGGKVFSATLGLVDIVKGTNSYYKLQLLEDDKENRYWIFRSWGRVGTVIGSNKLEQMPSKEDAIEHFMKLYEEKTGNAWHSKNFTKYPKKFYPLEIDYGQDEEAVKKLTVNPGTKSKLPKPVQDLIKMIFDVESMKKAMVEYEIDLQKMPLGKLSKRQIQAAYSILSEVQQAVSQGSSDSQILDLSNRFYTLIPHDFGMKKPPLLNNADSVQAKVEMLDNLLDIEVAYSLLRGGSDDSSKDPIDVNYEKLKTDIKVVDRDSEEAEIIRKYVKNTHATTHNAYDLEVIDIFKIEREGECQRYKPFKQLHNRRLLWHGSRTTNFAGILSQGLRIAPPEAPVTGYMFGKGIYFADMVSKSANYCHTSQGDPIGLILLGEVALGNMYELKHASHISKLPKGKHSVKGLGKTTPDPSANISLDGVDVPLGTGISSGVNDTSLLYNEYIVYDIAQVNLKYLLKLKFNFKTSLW
As to the kind of experiment: PARP1 Biochemical Assay (BPS Bioscience kit, chemiluminescence). Particulars: histone-coated plate, biotinilated NAD+, 25° C. for 60 min, luminescence, read-out: PARP 1 inhibition IC50. An outline of the steps:
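Human PARP1 (25–75 ng/well) with activated DNA was incubated with compound on histone-coated wells. Biotinylated NAD+ was added and the reaction ran 60 min at 25 °C. Ribosylation was detected by streptavidin-HRP chemiluminescence, % inhibition was normalised to enzyme-free and uninhibited controls, and IC50 was fitted from % inhibition versus concentration.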
On to `O=c1[nH]c(C2=C[C@H](N3CCN(c4cc(F)ccc4F)CC3)CC2)nc2c1CC1(CC2)CC1` [Compound 106, (R)-2′-(3-(4-(2,5-difluorophenyl)piperazin-1-yl)cyclopent-1-en-1-yl)-7′,8′-dihydro-3′H-spiro[cyclopropane-1,6′-quinazolin]-4′(5′H)-one], for which the half-maximal inhibitory concentration (IC50) (commonly the concentration that gives 50% inhibition) fell in the range of 1 to 500 nM.
To `O=c1[nH]c(C2=C[C@H](N3CCN(c4ncc(Cl)cc4Cl)CC3)CC2)nc2c1CC1(CC2)CC1` [Compound 107, (R)-2′-(3-(4-(3,5-dichloropyridin-2-yl)piperazin-1-yl)cyclopent-1-en-1-yl)-7′,8′-dihydro-3′H-spiro[cyclopropane-1,6′-quinazolin]-4′(5′H)-one] belongs 1 to 500 nM; to `Cc1c(F)cccc1N1CCN([C@H]2C=C(c3nc4c(c(=O)[nH]3)CC3(CC4)CC3)CC2)CC1` [Compound 108, (R)-2′-(3-(4-(3-fluoro-2-methylphenyl)piperazin-1-yl)cyclopent-1-en-1-yl)-7′,8′-dihydro-3′H-spiro[cyclopropane-1,6′-quinazolin]-4′(5′H)-one], 1 to 500 nM; to `O=c1[nH]c(C2=C[C@H](N3CCN(c4cc(F)cc(F)c4)CC3)CC2)nc2c1CC1(CC2)CC1` [Compound 109, (R)-2′-(3-(4-(3,5-difluorophenyl)piperazin-1-yl)cyclopent-1-en-1-yl)-7′,8′-dihydro-3′H-spiro[cyclopropane-1,6′-quinazolin]-4′(5′H)-one], 1 to 500 nM.
`O=c1[nH]c(C2=C[C@H](N3CCN(c4c(F)cccc4F)CC3)CC2)nc2c1CC1(CC2)CC1` [Compound 110, (R)-2′-(3-(4-(2,6-difluorophenyl)piperazin-1-yl)cyclopent-1-en-1-yl)-7′,8′-dihydro-3′H-spiro[cyclopropane-1,6′-quinazolin]-4′(5′H)-one]: the 50% inhibitory concentration (IC50) is 501 to 5000 nM.
Consider `N#Cc1ccc(N2CCN([C@H]3C=C(c4nc5c(c(=O)[nH]4)CC4(CC5)CC4)CC3)CC2)c(F)c1` [Compound 111, (R)-3-fluoro-4-(4-(3-(4′-oxo-4′,5′,7′,8′-tetrahydro-3′H-spiro[cyclopropane-1,6′-quinazolin]-2′-yl)cyclopent-2-en-1-yl)piperazin-1-yl)benzonitrile], for which the 50% inhibitory concentration (IC50) fell in the range of 1 to 500 nM.
Consider `CNC(=O)c1cnc(N2CCN([C@H]3C=C(c4nc5c(c(=O)[nH]4)CC4(CC5)CC4)CC3)CC2)c(F)c1` [Compound 112, (R)-5-fluoro-N-methyl-6-(4-(3-(4′-oxo-4′,5′,7′,8′-tetrahydro-3′H-spiro[cyclopropane-1,6′-quinazolin]-2′-yl)cyclopent-2-en-1-yl)piperazin-1-yl)nicotinamide], for which the concentration for half-maximal inhibition (IC50) was in the range of 501 to 5000 nM.
To `Cc1cnc(N2CCN([C@H]3C=C(c4nc5c(c(=O)[nH]4)CC4(CC5)CC4)CC3)CC2)s1` [Compound 113, (R)-2′-(3-(4-(5-methylthiazol-2-yl)piperazin-1-yl)cyclopent-1-en-1-yl)-7′,8′-dihydro-3′H-spiro[cyclopropane-1,6′-quinazolin]-4′(5′H)-one] belongs 1 to 500 nM.
With `COc1cc(N2CCN([C@H]3C=C(c4nc5c(c(=O)[nH]4)CC4(CC5)CC4)CC3)CC2)ccc1F` [Compound 114, (R)-2′-(3-(4-(4-fluoro-3-methoxyphenyl)piperazin-1-yl)cyclopent-1-en-1-yl)-7′,8′-dihydro-3′H-spiro[cyclopropane-1,6′-quinazolin]-4′(5′H)-one], the half-maximal inhibitory concentration (IC50) is 1 to 500 nM.
As to `O=c1[nH]c(C2=C[C@H](N3CCN(c4cc(F)cc(Cl)c4)CC3)CC2)nc2c1CC1(CC2)CC1` [Compound 115, (R)-2′-(3-(4-(3-chloro-5-fluorophenyl)piperazin-1-yl)cyclopent-1-en-1-yl)-7′,8′-dihydro-3′H-spiro[cyclopropane-1,6′-quinazolin]-4′(5′H)-one], the IC50 is 501 to 5000 nM.
To `O=c1[nH]c(C2=C[C@H](N3CCN(c4ccccc4F)CC3)CC2)nc2c1CC1(CC2)CC1` [Compound 116, (R)-2′-(3-(4-(2-fluorophenyl)piperazin-1-yl)cyclopent-1-en-1-yl)-7′,8′-dihydro-3′H-spiro[cyclopropane-1,6′-quinazolin]-4′(5′H)-one] belongs 1 to 500 nM.
To `O=c1[nH]c(C2=C[C@H](N3CCN(c4ccccc4)CC3)CC2)nc2c1CC1(CC2)CC1` [Compound 117, (R)-2′-(3-(4-phenylpiperazin-1-yl)cyclopent-1-en-1-yl)-7′,8′-dihydro-3′H-spiro[cyclopropane-1,6′-quinazolin]-4′(5′H)-one] belongs 1 to 500 nM; to `O=c1[nH]c([C@@H]2CC[C@H](N3CCN(c4ccc(Cl)cc4)CC3)C2)nc2c1CC1(CC2)CC1` [Compound 118, 2′-((1R,3S)-3-(4-(4-chlorophenyl)piperazin-1-yl)cyclopentyl)-7′,8′-dihydro-3′H-spiro[cyclopropane-1,6′-quinazolin]-4′(5′H)-one], 501 to 5000 nM.
Take `O=c1[nH]c([C@H]2CC[C@H](N3CCN(c4ccc(Cl)cc4)CC3)C2)nc2c1CC1(CC2)CC1` [Compound 119, 2′-((1S,3S)-3-(4-(4-chlorophenyl)piperazin-1-yl)cyclopentyl)-7′,8′-dihydro-3′H-spiro[cyclopropane-1,6′-quinazolin]-4′(5′H)-one]: the 50% inhibitory concentration (IC50) is 1 to 500 nM.
Regarding `O=c1[nH]c([C@H]2CC[C@@H](N3CCN(c4ccc(Cl)cc4)CC3)C2)nc2c1CC1(CC2)CC1` [Compound 120, 2′-((1S,3R)-3-(4-(4-chlorophenyl)piperazin-1-yl)cyclopentyl)-7′,8′-dihydro-3′H-spiro[cyclopropane-1,6′-quinazolin]-4′(5′H)-one], the IC50 was in the range of 501 to 5000 nM.
For the compound `O=c1[nH]c([C@@H]2CC[C@@H](N3CCN(c4ccc(Cl)cc4)CC3)C2)nc2c1CC1(CC2)CC1` [Compound 121, 2′-((1R,3R)-3-(4-(4-chlorophenyl)piperazin-1-yl)cyclopentyl)-7′,8′-dihydro-3′H-spiro[cyclopropane-1,6′-quinazolin]-4′(5′H)-one], the half-maximal inhibitory concentration (IC50) lay in the range of 5000 to 500000 nM.
Regarding `O=c1[nH]c(C2=C[C@H](N3CCN(c4ccccc4Cl)CC3)CC2)nc2c1CC1(CC2)CC1` [Compound 122, (R)-2′-(3-(4-(2-chlorophenyl)piperazin-1-yl)cyclopent-1-en-1-yl)-7′,8′-dihydro-3′H-spiro[cyclopropane-1,6′-quinazolin]-4′(5′H)-one], the IC50 lay within 1 to 500 nM.
To `Cc1ccc(F)cc1N1CCN([C@H]2C=C(c3nc4c(c(=O)[nH]3)CC3(CC4)CC3)CC2)CC1` [Compound 123, (R)-2′-(3-(4-(5-fluoro-2-methylphenyl)piperazin-1-yl)cyclopent-1-en-1-yl)-7′,8′-dihydro-3′H-spiro[cyclopropane-1,6′-quinazolin]-4′(5′H)-one] belongs 1 to 500 nM; to `Cc1ccc(N2CCN([C@H]3C=C(c4nc5c(c(=O)[nH]4)CC4(CC5)CC4)CC3)CC2)nc1` [Compound 124, (R)-2′-(3-(4-(5-methylpyridin-2-yl)piperazin-1-yl)cyclopent-1-en-1-yl)-7′,8′-dihydro-3′H-spiro[cyclopropane-1,6′-quinazolin]-4′(5′H)-one], 1 to 500 nM.
The same measure for `Cc1ccnc(N2CCN([C@H]3C=C(c4nc5c(c(=O)[nH]4)CC4(CC5)CC4)CC3)CC2)c1` [Compound 125, (R)-2′-(3-(4-(4-methylpyridin-2-yl)piperazin-1-yl)cyclopent-1-en-1-yl)-7′,8′-dihydro-3′H-spiro[cyclopropane-1,6′-quinazolin]-4′(5′H)-one]: 1 to 500 nM; for `Cc1cc(F)cc(N2CCN([C@H]3C=C(c4nc5c(c(=O)[nH]4)CC4(CC5)CC4)CC3)CC2)c1` [Compound 126, (R)-2′-(3-(4-(3-fluoro-5-methylphenyl)piperazin-1-yl)cyclopent-1-en-1-yl)-7′,8′-dihydro-3′H-spiro[cyclopropane-1,6′-quinazolin]-4′(5′H)-one]: 501 to 5000 nM; for `N#Cc1ccc(N2CCN([C@H]3C=C(c4nc5c(c(=O)[nH]4)CC4(CC5)CC4)CC3)CC2)cc1F` [Compound 127, (R)-2-fluoro-4-(4-(3-(4′-oxo-4′,5′,7′,8′-tetrahydro-3′H-spiro[cyclopropane-1,6′-quinazolin]-2′-yl)cyclopent-2-en-1-yl)piperazin-1-yl)benzonitrile]: 1 to 500 nM.
As to `O=c1[nH]c(C2=C[C@H](N3CCN(c4ncccn4)CC3)CC2)nc2c1CC1(CC2)CC1` [Compound 128, (R)-2′-(3-(4-(pyrimidin-2-yl)piperazin-1-yl)cyclopent-1-en-1-yl)-7′,8′-dihydro-3′H-spiro[cyclopropane-1,6′-quinazolin]-4′(5′H)-one], the IC50 is 5000 to 500000 nM.
The same measure for `Cc1ncccc1N1CCN([C@H]2C=C(c3nc4c(c(=O)[nH]3)CC3(CC4)CC3)CC2)CC1` [Compound 129, (R)-2′-(3-(4-(2-methylpyridin-3-yl)piperazin-1-yl)cyclopent-1-en-1-yl)-7′,8′-dihydro-3′H-spiro[cyclopropane-1,6′-quinazolin]-4′(5′H)-one]: 1 to 500 nM; for `CNC(=O)c1ccnc(N2CCN([C@H]3C=C(c4nc5c(c(=O)[nH]4)CC4(CC5)CC4)CC3)CC2)c1` [Compound 130, (R)—N-methyl-2-(4-(3-(4′-oxo-4′,5′,7′,8′-tetrahydro-3′H-spiro[cyclopropane-1,6′-quinazolin]-2′-yl)cyclopent-2-en-1-yl)piperazin-1-yl)isonicotinamide]: 501 to 5000 nM; for `CNC(=O)c1cccnc1N1CCN([C@H]2C=C(c3nc4c(c(=O)[nH]3)CC3(CC4)CC3)CC2)CC1` [Compound 131, (R)—N-methyl-2-(4-(3-(4′-oxo-4′,5′,7′,8′-tetrahydro-3′H-spiro[cyclopropane-1,6′-quinazolin]-2′-yl)cyclopent-2-en-1-yl)piperazin-1-yl)nicotinamide]: 501 to 5000 nM.
As to `Cc1cccnc1N1CCN([C@H]2C=C(c3nc4c(c(=O)[nH]3)CC3(CC4)CC3)CC2)CC1` [Compound 132, (R)-2′-(3-(4-(3-methylpyridin-2-yl)piperazin-1-yl)cyclopent-1-en-1-yl)-7′,8′-dihydro-3′H-spiro[cyclopropane-1,6′-quinazolin]-4′(5′H)-one], the IC50 lay within 1 to 500 nM.
